# The source made the active and inactive calls. The rule behind the calls is not given here.
# Assays:
# Danio rerio = species on record: Danio rerio; assay: Antiangiogenic activity in 72 hrs post fertilized zebra fish embryo harboring fli1a:EGFP assessed as area of subintestinal veins at 10 uM after 48 hrs by fluorescence microscopic analysis (reference value: 100%); type: functional
# [1] = (§1) Cytotoxicity against human KB-V1/Vbl cells after 72 hrs by MTT assay; type: functional, cell-based
# KB-V1/Vbl = assay: as §1; type: functional, cell-based
# Gallus gallus [2] = assay: Vascular disruptive activity in 6 days post fertilized chicken egg chorioallantoic/vitelline membrane assessed as degradation of blood vessels at 10 nmol administered topically measured after 6 hrs by stereo-microscopic analysis; type: functional
# HT-29 [3] = assay: Cell cycle arrest in human HT-29 cells assessed as accumulation at G1 phase at 5 uM after 24 hrs by propidium iodide staining based flow cytometric analysis (reference value: 68 +/- 0.9%); type: functional
# Homo sapiens = species on record: Homo sapiens; assay: Inhibition of NF-kappaB in human 518A2 cells assessed as reduction in p65 subunit expression at 0.5 to 1 uM after 24 hrs by Western blot analysis; type: cell-based
# U-87MG ATCC [4] = assay: (§2) Cytotoxicity against human U87 cells after 72 hrs by MTT assay; type: functional, cell-based
# [5] = as §2; type: functional, cell-based, U-87MG ATCC; details: U-87 MG
# HT-29 [6] = assay: Upregulation of cyclin B1 expression in human HT-29 cells at 0.5 to 0.75 uM after 24 hrs by Western blot analysis; type: functional, cell-based
# [7] = Cytotoxicity against HDFa after 72 hrs by MTT assay; type: cell-based; details: Homo sapiens
# HT-29 [8] = assay: Cell cycle arrest in human HT-29 cells assessed as accumulation at G1 phase at 2.5 uM after 24 hrs by propidium iodide staining based flow cytometric analysis (reference value: 68 +/- 0.9%); type: functional
# 518A2 [9] = assay: Cytotoxicity against human 518A2 cells after 72 hrs by MTT assay; type: functional, cell-based
# HT-29 [10] = assay: Cell cycle arrest in human HT-29 cells assessed as accumulation at G1 phase at 1 uM after 24 hrs by propidium iodide staining based flow cytometric analysis (reference value: 68 +/- 0.9%); type: functional
# U-87MG ATCC [11] = assay: Anti-vasculogenic activity in human U87 cells assessed as reduction in formation of cord-like structures at 1 uM after 24 hrs by matrigel based light microscopic analysis; type: functional, cell-based
# HT-29 [12] = assay: Cell cycle arrest in human HT-29 cells assessed as accumulation at sub-G1 phase at 2.5 uM after 24 hrs by propidium iodide staining based flow cytometric analysis (reference value: 0.9 +/- 0.1%); type: functional
# HCT-116 = assay: Cytotoxicity against human HCT116 cells after 72 hrs by MTT assay; type: functional, cell-based
# HT-29 [13] = assay: Cell cycle arrest in human HT-29 cells assessed as accumulation at S phase at 2.5 uM after 24 hrs by propidium iodide staining based flow cytometric analysis (reference value: 15.6 +/- 0.3%); type: functional
# HT-29 [14] = assay: Cell cycle arrest in human HT-29 cells assessed as accumulation at G2/M phase at 5 uM after 24 hrs by propidium iodide staining based flow cytometric analysis (reference value: 15.5 +/- 0.5%); type: functional
# 518A2 [15] = assay: Anti-migratory activity in human 518A2 cells assessed as wound closure at 250 nM after 48 hrs by light microscopic analysis (reference value: 100%); type: functional
# HT-29 [16] = assay: Cell cycle arrest in human HT-29 cells assessed as accumulation at S phase at 5 uM after 24 hrs by propidium iodide staining based flow cytometric analysis (reference value: 15.6 +/- 0.3%); type: functional
# DLD-1 = assay: Cytotoxicity against human DLD1 cells after 72 hrs by MTT assay; type: functional, cell-based
# [17] = Toxicity in 6 days post fertilized chicken egg chorioallantoic/vitelline membrane assessed as irritation of chorioallantoic/vitelline membrane at 10 nmol administered topically measured after 24 hrs; design: species or system Gallus gallus; details: in vivo, topical_or_ocular
# U-87MG ATCC [18] = assay: Anti-vasculogenic activity in human U87 cells assessed as reduction in formation of blood-vessel like tubular structures at 1 uM after 24 hrs by matrigel based light microscopic analysis; type: functional, cell-based
# Gallus gallus [19] = assay: Vascular disruptive activity in 6 days post fertilized chicken egg assessed as area covered by blood vessels at 10 nmol administered topically measured after 6 hrs by light microscopic analysis relative to control; type: functional
# MCF7/Topo = assay: (§3) Cytotoxicity against human MCF7/Topo cells after 72 hrs by MTT assay; type: functional, cell-based
# [20] = as §3; type: functional, cell-based
# HT-29 [21] = assay: Cell cycle arrest in human HT-29 cells assessed as accumulation at S phase at 1 uM after 24 hrs by propidium iodide staining based flow cytometric analysis (reference value: 15.6 +/- 0.3%); type: functional
# HT-29 [22] = assay: Cell cycle arrest in human HT-29 cells assessed as accumulation at sub-G1 phase at 1 uM after 24 hrs by propidium iodide staining based flow cytometric analysis (reference value: 0.9 +/- 0.1%); type: functional
# [23] = Cytotoxicity against human U87 cells assessed as cell viability at 10 nmol after 24 hrs by MTT assay relative to control; type: cell-based, U-87MG ATCC; details: read-out: Activity
# 518A2 [24] = assay: Anti-migratory activity in human 518A2 cells assessed as wound closure at 250 nM after 24 hrs by light microscopic analysis; type: functional, cell-based
# HT-29 [25] = assay: Cytotoxicity against human HT-29 cells after 72 hrs by MTT assay; type: functional, cell-based
# PANC-1 = assay: Cytotoxicity against human PANC1 cells after 72 hrs by MTT assay; type: functional, cell-based
# HT-29 [26] = assay: Cell cycle arrest in human HT-29 cells assessed as accumulation at G2/M phase at 1 uM after 24 hrs by propidium iodide staining based flow cytometric analysis (reference value: 15.5 +/- 0.5%); type: functional
# HT-29 [27] = assay: Cell cycle arrest in human HT-29 cells assessed as accumulation at sub-G1 phase at 5 uM after 24 hrs by propidium iodide staining based flow cytometric analysis (reference value: 0.9 +/- 0.1%); type: functional
# HT-29 [28] = assay: Cell cycle arrest in human HT-29 cells assessed as accumulation at G2/M phase at 2.5 uM after 24 hrs by propidium iodide staining based flow cytometric analysis (reference value: 15.5 +/- 0.5%); type: functional
# U-87MG ATCC [29] = assay: Anti-vasculogenic activity in human U87 cells assessed as reduction in formation of small stray colonies at 1 uM after 24 hrs by matrigel based light microscopic analysis; type: functional, cell-based
smiles,measurement,setting,value
CCN1C/C(=C\c2ccc(S(F)(F)(F)(F)F)cc2)C(=O)/C(=C/c2ccc(S(F)(F)(F)(F)F)cc2)C1,Activity,Danio rerio,51%
same,IC50,[1],640 nM
same,Activity,KB-V1/Vbl,Dose-dependent effect
same,Activity,Gallus gallus [2],Active
same,Activity,HT-29 [3],35.9%
same,inhibition,Homo sapiens,Active
same,Activity,U-87MG ATCC [4],Dose-dependent effect
same,IC50,[5],930 nM
same,Activity,HT-29 [6],Active
same,IC50,[7],3200 nM
same,Activity,HT-29 [8],43.1%
same,Activity,518A2 [9],Dose-dependent effect
same,IC50,"518A2 [9]; 518A2, 72 h",990 nM
same,Activity,HT-29 [10],46.7%
same,Activity,U-87MG ATCC [11],inactive
same,Activity,HT-29 [12],12.8%
same,Activity,HCT-116,Dose-dependent effect
same,IC50,"HCT-116; HCT-116, 72 h",240 nM
same,Activity,HT-29 [13],12%
same,Activity,HT-29 [14],31%
same,Activity,518A2 [15],77%
same,Activity,HT-29 [16],16.5%
same,Activity,DLD-1,Dose-dependent effect
same,IC50,"DLD-1; DLD-1, 72 h",330 nM
same,Activity,[17],Toxic
same,Activity,U-87MG ATCC [18],inactive
same,Activity,Gallus gallus [19],67%
same,Activity,MCF7/Topo,Dose-dependent effect
same,IC50,[20],400 nM
same,Activity,HT-29 [21],8.1%
same,Activity,HT-29 [22],13.2%
same,"viability at 24 h, 10 nmol",[23],> 85%
same,Activity,518A2 [24],Active
same,Activity,HT-29 [25],Dose-dependent effect
same,IC50,"HT-29 [25]; HT-29, 72 h",290 nM
same,Activity,PANC-1,Dose-dependent effect
same,IC50,"PANC-1; PANC-1, 72 h",1100 nM
same,Activity,HT-29 [26],32.1%
same,Activity,HT-29 [27],16.6%
same,Activity,HT-29 [28],32.1%
same,Activity,U-87MG ATCC [29],inactive

# Reference: ChEMBL document CHEMBL4043139, “Fluoro and pentafluorothio analogs of the antitumoral curcuminoid EF24 with superior antiangiogenic and vascular-disruptive effects” (Bioorg Med Chem, 2017)
